Laboratory results: US7307097B2, “Chemical compounds” (SmithKline Beechman Corporation, priority 2001, dated 2007)
One block for each compound: values may come before it.

Assays:
Recombinant GST-Tie2 = Recombinant GST-Tie2 (Homo sapiens, UniProt Q02763); assay: Tie2 fluorescence polarization kinase activity assay (TIE2-FP); assay type: biochemical; settings: 200 μM ATP, activated enzyme; read-out: TIE2-FP pIC50 (converted)
Procedure: Tie2 Fluorescence Polarization Kinase Activity Assay (TIE2-FP) Activation of Recombinant Tie2 Activation: Recombinant GST-Tie2 is activated by incubating the enzyme in 20 mM Tris-HCl, pH7.5, 12 mM MgCl2, 100 mM NaCl, 20 μM sodium vanidate, 1 mM DTT and 300 μM ATP at room temperature for 2 hours. The activation mixture is then passed through a NAP-25 desalting column (Pharmacia Biotech cat. no. 17-0852-02) to remove the free ATP. The activated enzyme is stored as aliquots at−80° C. in 20mM Tris-HCl, pH7.5 and 100 mM NaCl. Assay Conditions: The final assay conditions are 50 mM HEPES, pH7.5, 5% DMSO (when screening compounds), 200 μM ATP, 5mM MgCl2, 1 mM DTT, 50 μM sodium vanidate, 1 nM activated enzyme, and 200 μM peptide. IC50's of compounds are measured under subsaturating ATP (200 μM) and varing concentrations of activated Tie2 and peptide substrate (RFWKYEFWR-OH; MW 1873 Da, TFA salt). Panvera Anti-phosphotyrosine antibody (Cat#P2840) and PTK Green Tracer (Cat#P2842) are used to detect the phosphorylated peptide. Polarization is measured on a TECAN Polarion in 138-second cycles for 30 minutes at room temperature. IC50's are then determined from the % polarization using normal calculation methods. The IC50 values are converted to pIC50 values, i.e.,−log IC50 in Molar concentration.

[1] = tested on: Human umbilical cord endothelial cells (HUVEC); assay: VEGF-driven cellular proliferation assay: BrdU incorporation assay (VEGF-C); assay type: cell-based; settings: read-out: VEGF-C pIC50 (converted)
Procedure: VEGF-driven Cellular Proliferation Assay: BrdU Incorporation Assay (VEGF-C)
Human umbilical cord endothelial cells (HUVEC, Clonetics, CC2519) are passaged in Type I collagen-coated 100-mm petridishes in EGM-MV medium (Clonetics, CC3125) at 37 C. in a humidified 5% CO2, 95% air incubator. (HUVEC passaged more than 6 times in vitro are discarded and not subjected to assaying.) The cells are harvested using trypsin/EDTA, counted using a haemocytometer and plated at 5000 cells/well in a Type I-collagen coated 96-well plate (Becton Dickinson, 354407) in M199 medium (Gibco BRL, 12340-030) containing 5% FBS (Hyclone, A 1115-L) and gentamicin (at 50 ug/ml, Gibco BRL). After incubation overnight at 37° C., the media are replaced with 100 ul of M199 serum-free medium containing compounds at various concentrations with 0.6% DMSO and gentamicin. The compounds are diluted in serum-free M199 medium from 10 mM stock solutions prepared in 100% DMSO. […] The incorporation of BrdU into the proliferating HUVEC are analyzed using BrdU Cell Proliferation ELISA (Roche Molecular Biochemicals, 1647229) according to the manufacturer's protocols. The optical density at 450 nm is measured with a multilabel counter (ARVO SX, Wallac). The percent inhibition of cell growth is calculated relative to blank control wells. […]

GST-VEGFR2 = target: T1, GST-VEGFR2 (Homo sapiens, UniProt P35968); assay: VEGF-R2 enzyme assay (VEGFR-2-E2), LANCE method; assay type: biochemical; settings: 75 uM ATP
T1 construct: recombinant constructs of the intracellular domains of human TIE2 tagged by GST; made in house
Excerpt: VEGF-R2 Enzyme Assay (VEGFR-2-E2)
The VEGF enzyme assay uses the LANCE method (Wallac) and GST-VEGFR2, baculovirus expressed recombinant constructs of the intracellular domains of […] tagged by GST. The method measures the ability of the purified enzymes to catalyse the transfer of the γ-phosphate from ATP onto tyrosine residues in a biotinylated synthetic peptide, (biotin-aminohexyl-EEEEYFELVAKKKK-NH2). This peptide phosphorylation is detected using the following procedure: GST-VEGFR2 is incubated for 40-60 mins at room temperature with 75 uM ATP, 5 mM MgCl2, 0.1 mM DTT, 0.1 mg/mL BSA and the test compound (diluted from a 10 mM stock in DMSO for desired concentration) in 100 mM HEPES buffer. The reaction is stopped by the addition of EDTA (final concentration 50 mM). Streptavidin linked-APC (allophycocyanin, Molecular Probe) and Europium-labeled anti-phosphorylated tyrosine antibody (Wallac) are then added at the final concentration of 15 nM and 1 nM, respectively. The APC signal is measured using an ARVO multilabel counter (Wallac Berthold, Japan). The percent inhibition of activity is calculated relative to blank control wells. The concentration of test compound that inhibits 50% of activity (IC50) is interpolated using nonlinear regression (Levernberg-Marquardt) and the equation, y=Vmax (1−x/(K+x))+Y2, where “K” is equal to the IC50. […]

[2] = target: T2, human VEGFR3 catalytic domain (Homo sapiens, UniProt P35916, H890Q); assay: VEGFR-3 homogenous time-resolved fluorescence assay (VEGFR-3-HTRF); assay type: biochemical; settings: 75 μM ATP, 1 nM enzyme
T2 construct: made in house; host or cells: Sf9 insect cells (baculovirus, pFastBac1)
Excerpt: VEGFR-3—Homogenous Time-resolved Fluorescence Assay (VEGFR-3-HTRF)
This assay assesses Vascular Endothelial Growth Factor 3 (VEGFR3) tyrosine kinase inhibitory activity in substrate phosphorylation assays. The assay examines the ability of small molecule organic compounds to inhibit the tyrosine phosphorylation of a peptide substrate.
The substrate phosphorylation assays use the VEGFR3 catalytic domain, which is expressed in Sf. 9 insect cells as an amino-terminal GST-tagged fusion protein. The catalytic domain of human VEGFR3 (AA residues #819-1298 based upon GenBank Accession #XM003852) is cloned by PCR from human Placenta Marathon Ready cDNA (Clontech). The PCR product is subcloned into pFastBac1 vector containing an N-terminal GST tag. […]
200 nM VEGFR3 enzyme is activated for 45 minutes at room temperature by incubating the enzyme in buffer containing 100 mM HEPES (pH7.2), 75 μM ATP, 0.3 mM DTT, 0.1 mg/mL BSA, and 10 mM MgCl2. […] Assay plates are left unsealed and are counted in a Wallac Multilabel Counter 1420 (PerkinElmer).
The data for dose responses are plotted as % Control calculated with the data reduction formula 100*(U1-C2)/(C1-C2) versus concentration of compound where U is the unknown value, C1 is the average control value obtained for DMSO, and C2 is the average control value obtained for 0.1M EDTA. […]

[3] = target: T3, GST-TIE2 (intracellular domains of human TIE2) (Homo sapiens, UniProt Q02763); assay: TIE-2 enzyme assay (TIE-2-E2); assay type: biochemical
T3 construct: made in house
Excerpt: TIE-2 Enzyme Assay (TIE2-E)
The TIE-2 enzyme assay uses the LANCE method (Wallac) and GST-TIE2, baculovirus expressed recombinant constructs of the intracellular domains of human TIE2 (amino acids 762-1104, GenBank Accession # L06139) tagged by GST). The method measures the ability of the purified enzymes to catalyse the transfer of the γ-phosphate from ATP onto tyrosine residues in a biotinylated synthetic peptide, D1-15 (biotin-C6-LEARLVAYEGWVAGKKKamide). This peptide phosphorylation is detected using the following procedure: for enzyme preactivation, GST-TIE2 is incubated for 30 mins at room temperature with 2 mM ATP, 5 mM MgCl2 and 12.5 mM DTT in 22.5 mM HEPES buffer (pH7.4). Preactivated GST-TIE2 is incubated for 30 mins at room temperature in 96 well plates with 1 uM D1-15 peptide, 80 uM ATP, 10 mM MgCl2, 0.1 mg/ml BSA and the test compound (diluted from a 10 mM stock in DMSO, final DMSO concentration is 2.4%) in 1 mM HEPES (pH7.4). The reaction is stopped by the addition of EDTA (final concentration 45 mM). Streptavidin linked-APC (allophycocyanin, Molecular Probe) and Europium-labeled anti-phosphorylated tyrosine antibody (Wallac) are then added at the final concentration of 17 ug/well and 2.1 ug/well, respectively. The APC signal is measured using an ARVO multilabel counter. […] The percent inhibition of activity is calculated relative to blank control wells. […]

T2 sequence (P35916 with tags, fused parts or gaps isoform P35916-1 H890Q): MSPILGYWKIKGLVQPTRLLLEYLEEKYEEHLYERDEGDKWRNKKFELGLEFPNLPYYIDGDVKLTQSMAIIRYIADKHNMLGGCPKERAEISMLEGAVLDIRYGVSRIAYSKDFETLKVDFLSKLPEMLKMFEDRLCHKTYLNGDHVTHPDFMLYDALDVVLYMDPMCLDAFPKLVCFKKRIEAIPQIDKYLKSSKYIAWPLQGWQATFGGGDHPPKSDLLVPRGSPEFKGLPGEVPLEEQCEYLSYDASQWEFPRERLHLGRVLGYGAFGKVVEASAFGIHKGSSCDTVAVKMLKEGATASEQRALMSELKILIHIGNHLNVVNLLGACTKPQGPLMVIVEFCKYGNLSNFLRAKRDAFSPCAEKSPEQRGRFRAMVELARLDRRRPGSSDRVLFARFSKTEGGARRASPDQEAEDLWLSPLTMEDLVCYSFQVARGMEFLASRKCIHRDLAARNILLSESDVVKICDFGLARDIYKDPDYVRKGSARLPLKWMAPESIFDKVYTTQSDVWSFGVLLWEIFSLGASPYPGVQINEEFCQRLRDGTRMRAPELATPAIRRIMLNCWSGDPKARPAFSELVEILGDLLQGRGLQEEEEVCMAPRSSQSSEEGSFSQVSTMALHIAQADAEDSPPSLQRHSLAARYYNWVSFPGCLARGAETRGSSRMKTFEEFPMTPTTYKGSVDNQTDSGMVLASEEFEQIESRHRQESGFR
T3 sequence (Q02763 762-1104): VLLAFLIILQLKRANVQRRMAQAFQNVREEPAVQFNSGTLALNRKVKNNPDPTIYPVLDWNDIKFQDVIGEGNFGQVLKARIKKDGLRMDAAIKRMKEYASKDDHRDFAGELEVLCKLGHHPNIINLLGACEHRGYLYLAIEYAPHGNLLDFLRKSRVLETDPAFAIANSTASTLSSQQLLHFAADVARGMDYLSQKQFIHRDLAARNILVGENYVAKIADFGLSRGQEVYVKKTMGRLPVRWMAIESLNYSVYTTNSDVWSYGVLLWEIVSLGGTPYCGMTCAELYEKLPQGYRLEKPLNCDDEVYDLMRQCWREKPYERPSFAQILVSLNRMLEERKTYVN
T1 sequence (P35968 786-1356 limits assumed): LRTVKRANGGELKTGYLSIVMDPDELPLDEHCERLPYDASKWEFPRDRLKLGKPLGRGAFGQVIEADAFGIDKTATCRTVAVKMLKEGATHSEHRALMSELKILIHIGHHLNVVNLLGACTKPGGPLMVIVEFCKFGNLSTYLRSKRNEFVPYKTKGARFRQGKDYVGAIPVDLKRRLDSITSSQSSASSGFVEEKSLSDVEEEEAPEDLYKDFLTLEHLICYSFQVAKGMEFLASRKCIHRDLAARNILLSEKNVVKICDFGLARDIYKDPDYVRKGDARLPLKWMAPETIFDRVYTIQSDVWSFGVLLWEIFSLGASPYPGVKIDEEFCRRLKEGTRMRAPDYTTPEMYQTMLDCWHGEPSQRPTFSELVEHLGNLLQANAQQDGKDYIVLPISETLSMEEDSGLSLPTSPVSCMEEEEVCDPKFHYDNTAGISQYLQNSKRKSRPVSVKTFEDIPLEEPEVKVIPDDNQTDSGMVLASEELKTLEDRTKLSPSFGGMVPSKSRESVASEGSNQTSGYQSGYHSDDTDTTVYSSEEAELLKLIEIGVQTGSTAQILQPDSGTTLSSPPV
Recombinant GST-Tie2, sequence (Q02763 23-1124): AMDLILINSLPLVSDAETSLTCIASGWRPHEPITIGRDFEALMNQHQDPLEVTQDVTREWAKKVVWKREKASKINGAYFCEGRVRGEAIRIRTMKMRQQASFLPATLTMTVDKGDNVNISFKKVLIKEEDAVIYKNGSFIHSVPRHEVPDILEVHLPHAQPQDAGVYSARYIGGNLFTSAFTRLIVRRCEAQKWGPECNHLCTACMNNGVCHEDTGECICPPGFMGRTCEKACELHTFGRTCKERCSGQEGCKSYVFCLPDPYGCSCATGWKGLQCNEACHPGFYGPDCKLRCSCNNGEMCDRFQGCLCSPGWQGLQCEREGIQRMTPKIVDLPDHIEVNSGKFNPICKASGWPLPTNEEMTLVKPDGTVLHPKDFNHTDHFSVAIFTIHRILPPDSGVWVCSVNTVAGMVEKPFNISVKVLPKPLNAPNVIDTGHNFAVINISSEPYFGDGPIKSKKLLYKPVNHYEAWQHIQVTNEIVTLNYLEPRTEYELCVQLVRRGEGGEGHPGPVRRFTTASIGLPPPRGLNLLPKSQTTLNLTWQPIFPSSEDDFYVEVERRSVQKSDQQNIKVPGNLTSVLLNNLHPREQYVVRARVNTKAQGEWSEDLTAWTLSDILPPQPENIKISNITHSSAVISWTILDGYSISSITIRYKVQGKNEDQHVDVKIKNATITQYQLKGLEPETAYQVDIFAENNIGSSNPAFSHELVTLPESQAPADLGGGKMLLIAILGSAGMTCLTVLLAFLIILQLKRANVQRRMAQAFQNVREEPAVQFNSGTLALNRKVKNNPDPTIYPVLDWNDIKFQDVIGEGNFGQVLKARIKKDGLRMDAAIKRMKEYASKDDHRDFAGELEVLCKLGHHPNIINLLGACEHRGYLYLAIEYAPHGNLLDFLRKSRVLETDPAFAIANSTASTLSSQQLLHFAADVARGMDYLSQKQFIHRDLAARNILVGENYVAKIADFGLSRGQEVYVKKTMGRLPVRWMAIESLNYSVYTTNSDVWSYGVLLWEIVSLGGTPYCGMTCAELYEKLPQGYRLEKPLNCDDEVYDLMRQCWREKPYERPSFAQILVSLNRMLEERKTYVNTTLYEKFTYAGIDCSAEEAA

IC50 (Recombinant GST-Tie2): < 100 nM
Compound: CC(C)(C)n1nc(-c2ccc(NC(=O)Nc3cc(C(F)(F)F)ccc3F)cc2)c(C(N)=O)c1N [Example 1, 5-Amino-1-tert-butyl-3-{4-[3-(2-fluoro-5-trifluoromethyl-phenyl)-ureido]-phenyl}-1H-pyrazole-4-carboxylic acid amide]
IC50 [1]: < 100 nM

IC50 (GST-VEGFR2; read-out: VEGFR-2-E2 pIC50 (converted)): < 100 nM
IC50 ([2]; read-out: VEGFR-3-HTRF pIC50 (converted)): < 100 nM
IC50 ([3]; read-out: TIE-2-E2 pIC50 (converted)): < 100 nM
Compound: CC(C)(C)c1cc(NC(=O)Nc2ccc(-c3nn(C(C)(C)C)c(N)c3C(N)=O)cc2)no1 [Example 35, 5-Amino-1-tert-butyl-3-{4-[3-(5-tert-butyl-isoxazol-3-yl)-ureido]-phenyl}-1H-pyrazole-4-carboxylic acid amide]

Compound: N,N-Dimethylamino-{4-[3-(fluoro-trifluoromethyl-phenyl)-ureido]-phenyl}-methyl-1H-pyrazole-4-carboxylic acid amide [Example 34]
VEGFR-2-E2 pIC50 (GST-VEGFR2): + (+ = pIC50 of 5.0-6.0)
VEGFR-3-HTRF pIC50 [2]: + (+ = pIC50 of 5.0-6.0)
TIE-2-E2 pIC50 [3]: +++ (+++ = pIC50 > 7.0)
